We go through 6 compounds from patent US12636379B2, “Microbubble-chemotherapeutic agent complex for sonodynamic therapy” (UNIVERSITY OF ULSTER, priority 2015, dated 2026).

For data set [1], the system named is HeLa cervical cancer cell line. Kind of data set: In vitro cytotoxicity with 780 nm excitation. As to conditions: excited at 780 nm. The format is cell-based.
The subject of a further data set is BxPC-3 cells. As to the kind of experiment: In vitro cytotoxicity with 780 nm irradiation. To be noted: exposed to 780 nm irradiation. The format is cell-based.
A short description of data set [2]: Singlet oxygen production (SOSG intensity) on 780 nm excitation. The format is physicochemical. As to conditions: excited at 780 nm. An excerpt: Increased SOSG intensity is indicative of singlet oxygen production.
The subject of a further data set is Mia Paca cells. Kind of data set: In vitro cytotoxicity with 780 nm irradiation. As to conditions: exposed to 780 nm irradiation. The format is cell-based.
The nature of data set [3]: Fluorescence emission spectra compared with Cardio Green. The format is physicochemical. From the text:
The new compounds clearly show similar absorption profiles to Cardio Green. […] This is attributed to increased ISC due to the additional iodine atoms.

Data set [4] has as its system ectopic BxPC-3 pancreatic tumors. As to the kind of experiment: Tumour localisation after tail vein administration. The format is in vivo, mice. As to conditions: 18 hours following tail vein administration.
Another data set deals with MIA PaCa-2 cells. Kind of data set: Combined antimetabolite/sonodynamic therapy with free agents, MTT assay. As to conditions: 3 μM RB and/or 50 μM 5FU, 3 h; US 30 sec, 1 MHz; MTT 24 h; n=6. As for the experimental part:
The cells were incubated with either 3 μM RB and 50 μM 5FU (or both) for 3 h as these represent sub-lethal doses and enabled synergy to be identified if evident. Ultrasound exposure was 30 sec, 3 W/cm^2, 1 MHz, 50% duty cycle; pulse repetition frequency of […]. Cell viability was determined 24 h following treatment using a MTT assay.
Human primary pancreatic adenocarcinoma cell lines MIA PaCa-2 were maintained in Dulbecco's Modified Eagle's Medium and supplemented with 10% (v/v) foetal bovine serum in a humidified 5% CO2 atmosphere at 37° C. The cells were plated into the wells of a 96-well plate at a concentration of 4×10^3 cells per well and incubated for 21 h at 37° C. in a humidified 5% CO2 atmosphere. The medium was then removed and wells treated with either Rose Bengal, ([…]), 5-Fluorouracil (50 μM) or a combination of both RB (3 μM) and 5-FU (50 μM) for 3 h. The drug solutions were then removed, fresh media added and selected wells treated with ultrasound delivered using a Sonidel SP100 sonoporator (30 sec, frequency=1 MHz, ultrasound power density=3.0 Wcm^−2, duty cycle=50% with pulse repetition frequency=100 Hz). The cells were then incubated for 24 h before cell viability was determined using a MTT assay.

The subject of another data set is Bcl2. To be noted: MIA PaCa-2 pancreatic cancer xenograft model; cited from earlier work.
The next data set concerns ectopic BxPC-3 tumours. As to the kind of experiment: Systemic (IP) gemcitabine therapy of ectopic tumours, tumour volume. The format is in vivo, mice. To be noted: 120 mg/kg IP on days 0, 3 and 8. On the procedure:
FIG. 9 is a plot of % change in tumour volume for mice treated with IP gemcitabine (120 mg/kg on days 0, 3 and 8) (filled squares) or vehicle only (filled diamonds). Error bars represent+the standard error where n=4.
In order to compare the effectiveness of the combined SDT/5-FU therapy against systemic gemcitabine therapy, we treated mice bearing ectopic BxPC-3 tumours with gemcitabine (120 mg/kg) administered by intraperitoneal (IP) injection on days 0, 3 and 8. Tumour volume was measured daily as before and compared to untreated animal controls.

The test system of the next data set is BxPc-3 tumours. Kind of data set: In vivo cytotoxicity: intratumoural treatment of ectopic xenograft tumours, tumour volume. Further details: species or system mice. To be noted: 9 days after single intratumoural treatment; 440 μM gemcitabine or 5-FU alone; mix (90.8 μM RB, 440 μM 5FU) +US. An excerpt: FIG. 8 is a plot of (a) % change in tumour volume and (b) average body weight for mice treated with (i) no treatment (open diamonds) (ii) ultrasound only (filled diamonds) (iii) gemcitabine (open triangles) (iv) O2MB-RB/O2MB-5FU mix-US (open circles) (v) O2MB-RB+US (filled squares) (vi) O2MB-RB/O2MB-5FU mix+US (filled circles). Not shown for ease of illustration are treatments with 5-FU alone, O2MB-RB-US, O2MB-5FU+US, O2MB-5FU-US. The RB, 5-FU and gemcitabine concentrations were kept constant in each case at 0.184 mg/kg (90.8 μM), 0.115 mg/kg (440 μM) and 0.264 mg/kg (440 μM) respectively. Ultrasound treatment was delivered for 30 sec at frequency of 1 MHz, an ultrasound power density of 3.0 Wcm^−2 and a duty cycle of 50%, pulse frequency=100 Hz. […]
BxPc-3 cells were maintained in RPMI-1640 medium supplemented with 10% foetal calf serum as described above. […] Once the tumours had reached an average volume of 218 mm^3, calculated from the geometric mean diameter using the equation tumour volume=4πR^3/3, animals were randomly distributed into 10 groups (n=4). […] After treatment, animals were allowed to recover from anaesthesia and tumour volume and body weight were recorded daily for nine days. The % increase in tumour volume was calculated employing the pre-treatment measurements for each group.

Each structure is given as a SMILES string.

For the compound `CC1(C)C(/C=C/C2=C(Cl)C(=C/C=C3/N(CCCCS(=O)(=O)O)c4cc(I)cc(I)c4C3(C)C)/CCC2)=[N+](CCCCS(=O)(=O)O)c2cc(I)cc(I)c21` [Compound I4-IRCYDYE, 2-((E)-2-((E)-2-chloro-3-((E)-2-(4,6-diiodo-3,3-dimethyl-1-(4-sulfobutyl)indolin-2-ylidene)ethylidene)cyclohex-1-en-1-yl)vinyl)-4,6-diiodo-3,3-dimethyl-1-(4-sulfobutyl)-3H-indol-1-ium], in data set [1], the “toxicity compared with Cardio Green” value is listed as “more toxic”. In addition, the “cytotoxicity compared with cardio green” value in the data set with BxPC-3 cells and with Mia Paca cells was “significantly more cytotoxic” throughout. Also, the singlet oxygen production result in data set [2] is given as “more singlet oxygen than Cardio Green”. For the same compound, the “fluorescence emission in comparison to cardio green” value in data set [3] is listed as “considerably quenched”.
Regarding `CC1(C)C(/C=C/C2=C(Cl)C(=C/C=C3/N(CCCCS(=O)(=O)O)c4ccc(I)cc4C3(C)C)/CCC2)=[N+](CCCCS(=O)(=O)O)c2ccc(I)cc21` [Compound I2-IRCYDYE, 2-((E)-2-((E)-2-chloro-3-((E)-2-(5-iodo-3,3-dimethyl-1-(4-sulfobutyl)indolin-2-ylidene)ethylidene)cyclohex-1-en-1-yl)vinyl)-5-iodo-3,3-dimethyl-1-(4-sulfobutyl)-3H-indol-1-ium], in [1], the “toxicity compared with Cardio Green” value is given as “more toxic”. For the same compound, the “cytotoxicity compared with cardio green” value in the data set with BxPC-3 cells and in the data set with Mia Paca cells was “significantly more cytotoxic” throughout. In addition, the singlet oxygen production entry in data set [2] was “more singlet oxygen than Cardio Green”. For the same compound, in [4], the tumour localisation entry is listed as “localises in tumor”. In [3], the “fluorescence emission in comparison to cardio green” value is given as “remains similar to cardiogreen”.
For the compound `O=C1OC2(c3cc(I)c(O)c(I)c3Oc3c2cc(I)c(O)c3I)c2c(Cl)c(Cl)c(Cl)c(Cl)c21` [RB, Rose Bengal], the “reduction in cell viability with ultrasound relative to the same treatment without ultrasound” value in the data set on MIA PaCa-2 cells worked out at 11.1%.
As to `CN1CCN(CCCNc2cc3c4c(c(NCCCN5CCN(C)CC5)cc5c4c2C(=O)N(CCCN2CCOCC2)C5=O)C(=O)N(CCCN2CCOCC2)C3=O)CC1` [MM41], the “reduction of Bcl2 levels at the protein level” value with Bcl2 is 40%.
For `Nc1ccn([C@@H]2O[C@H](CO)[C@@H](O)C2(F)F)c(=O)n1` [gemcitabine], the “tumour volume relative to starting tumour volume” value with ectopic BxPC-3 tumours is recorded as “at no point in the therapy did the tumour volume decrease below the starting tumour volume”. In the data set with ectopic BxPC-3 tumours (control group about 100%), the tumour volume increase is given as 38%. The “increase in tumour volume at day 6” value in the data set on ectopic BxPC-3 tumours (day 6) was determined as 20%. In addition, the “tumour growth over original starting volume” value in the data set on BxPc-3 tumours came out at 125.1%.
As to `O=c1[nH]cc(F)c(=O)[nH]1` [Compound 5-FU, 5-fluorouracil], in the data set on BxPc-3 tumours, the “tumour growth over original starting volume” value came to 123.3%. In addition, the “reduction in cell viability with ultrasound relative to the same treatment without ultrasound” value in the data set with MIA PaCa-2 cells came to 5.9%.
